In ChEMBL document CHEMBL1208756, “LuxR-dependent quorum sensing: computer aided discovery of new inhibitors structurally unrelated to N-acylhomoserine lactones” (Bioorg Med Chem Lett, 2010):
The source made the active and inactive calls. The rule behind the calls is not given here.

Experiments:
[1] = biological target: T1, Transcriptional activator protein LuxR (Aliivibrio fischeri) (UniProt P12746); experiment: Induction of LuxR-dependent quorum sensing in Vibrio fischeri assessed as induction of bioluminescence intensity up to 200 uM
T1 sequence (whole entry): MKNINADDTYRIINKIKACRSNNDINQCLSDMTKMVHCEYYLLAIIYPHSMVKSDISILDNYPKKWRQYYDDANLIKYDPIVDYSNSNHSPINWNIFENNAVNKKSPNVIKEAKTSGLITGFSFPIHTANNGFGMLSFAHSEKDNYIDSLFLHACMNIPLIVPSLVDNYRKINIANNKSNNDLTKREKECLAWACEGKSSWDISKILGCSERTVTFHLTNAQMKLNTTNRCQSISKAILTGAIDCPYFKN

[2] = biological target: T2, Transcriptional activator protein LuxR (Aliivibrio fischeri, UniProt P12746); experiment: Inhibition of LuxR-dependent quorum sensing in Vibrio fischeri assessed as reduction of 3-oxo-C6-HSL-induced bioluminescence intensity
T2 sequence (P12746 whole entry): T1 sequence (whole entry)

[3] = biological target: T1, Transcriptional activator protein LuxR (Aliivibrio fischeri); experiment: Inhibition of LuxR-dependent quorum sensing in Vibrio fischeri assessed as reduction of 3-oxo-C6-HSL-induced bioluminescence intensity at 20 uM
[4] = biological target: T1, Transcriptional activator protein LuxR (Aliivibrio fischeri); experiment: Inhibition of LuxR-dependent quorum sensing in Vibrio fischeri assessed as reduction of 3-oxo-C6-HSL-induced bioluminescence intensity at 40 uM

Structure (SMILES)	Activity [1]	IC50 [2] [µM]	inhibition [3] [%]	inhibition [4] [%]
Clc1ccc(C(c2ccc(Cl)cc2)[n+]2ccn(CC(OCc3ccc(Cl)cc3Cl)c3ccc(Cl)cc3Cl)c2)cc1 (centres undefined)	inactive			
Clc1ccc(C(c2ccc(Cl)cc2)n2cc[n+](CC(OCc3ccc(Cl)cc3Cl)c3ccc(Cl)cc3Cl)c2)cc1 (centres undefined) [CALMIDAZOLIUM CHLORIDE]		7		
CC(NCCC(c1ccccc1)c1ccccc1)c1ccccc1 (centres undefined) [FENDILINE]	inactive	91		
CN1CCC(=C2c3ccccc3Sc3ccccc32)CC1 [PIMETHIXENE]	inactive	56		
CN[C@H]1CC[C@@H](c2ccc(Cl)c(Cl)c2)c2ccccc21 [SERTRALINE]	inactive	27		
CC/C(=C(\c1ccccc1)c1ccc(OCCN(C)C)cc1)c1ccccc1 [TAMOXIFEN]	inactive	40	73.6	53
CC(C)(C)c1ccc(C(O)CCCN2CCC(C(O)(c3ccccc3)c3ccccc3)CC2)cc1 (centres undefined) [TERFENADINE]	inactive	92		
